Reference: ChEMBL document CHEMBL2401630, “A thienopyrimidine derivative induces growth inhibition and apoptosis in human cancer cell lines via inhibiting Aurora B kinase activity” (Eur J Med Chem, 2013)
Activity calls are given as the source filed them. No cut-off for these calls is given here.

Tests used:
SK-HEP1 = assay: Cytotoxicity against human SKHEP1 cells after 72 hrs by CCK-8 assay; format: functional, cell-based; conditions: SK-HEP1, 72 h
Homo sapiens = species: Homo sapiens; assay: Inhibition of PKA (unknown origin) at 10 uM by Z'-LYTE kinase assay
[1] = target: Aurora kinase A (Homo sapiens) (UniProt O14965); assay: Inhibition of Aurora A kinase (unknown origin) at 10 uM by Z'-LYTE kinase assay
Sequence of Aurora kinase A (Homo sapiens) (O14965 whole entry): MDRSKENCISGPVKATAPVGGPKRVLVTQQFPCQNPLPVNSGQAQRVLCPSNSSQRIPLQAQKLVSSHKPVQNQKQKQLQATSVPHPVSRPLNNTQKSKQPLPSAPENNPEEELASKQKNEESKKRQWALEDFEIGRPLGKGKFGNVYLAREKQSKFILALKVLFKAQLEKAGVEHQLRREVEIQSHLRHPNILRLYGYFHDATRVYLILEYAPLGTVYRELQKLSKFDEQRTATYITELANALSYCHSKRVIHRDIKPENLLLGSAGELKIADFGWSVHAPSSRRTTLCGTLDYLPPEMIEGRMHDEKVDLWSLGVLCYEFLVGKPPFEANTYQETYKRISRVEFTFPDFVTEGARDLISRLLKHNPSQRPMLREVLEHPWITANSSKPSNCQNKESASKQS

Aurora kinase B [2] = target: T1, Aurora kinase B (Homo sapiens, UniProt Q96GD4); assay: Competitive inhibition of recombinant Aurora B kinase (unknown origin) expressed in Escherichia coli by Z'-LYTE kinase assay in presence of ATP
T1 sequence (Q96GD4 whole entry): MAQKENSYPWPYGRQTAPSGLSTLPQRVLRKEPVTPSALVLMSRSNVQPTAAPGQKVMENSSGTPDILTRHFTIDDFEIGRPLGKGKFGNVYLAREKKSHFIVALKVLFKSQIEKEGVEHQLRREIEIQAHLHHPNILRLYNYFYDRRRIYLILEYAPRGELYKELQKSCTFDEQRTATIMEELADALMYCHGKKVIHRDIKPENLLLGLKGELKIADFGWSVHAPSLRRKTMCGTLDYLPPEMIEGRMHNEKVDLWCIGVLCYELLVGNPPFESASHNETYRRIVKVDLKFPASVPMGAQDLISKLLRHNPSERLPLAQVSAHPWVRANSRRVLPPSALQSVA

[3] = target: Tyrosine-protein kinase receptor UFO (Homo sapiens) (UniProt P30530); assay: Inhibition of AXL (unknown origin) at 10 uM by Z'-LYTE kinase assay
[4] = target: Epidermal growth factor receptor (Homo sapiens) (UniProt P00533); assay: Inhibition of EGFR (unknown origin) at 10 uM by Z'-LYTE kinase assay
[5] = Cytotoxicity against human Hep3B cells after 72 hrs by CCK-8 assay; format: functional, cell-based, Hep 3B2
Aurora kinase B [6] = target: T1, Aurora kinase B; assay: Inhibition of Aurora B kinase (unknown origin) at 10 uM by Z'-LYTE kinase assay
[7] = target: Proto-oncogene tyrosine-protein kinase receptor Ret (Homo sapiens) (UniProt P07949); assay: Inhibition of RET (unknown origin) at 10 uM by Z'-LYTE kinase assay
Sequence of Proto-oncogene tyrosine-protein kinase receptor Ret (Homo sapiens) (P07949 whole entry): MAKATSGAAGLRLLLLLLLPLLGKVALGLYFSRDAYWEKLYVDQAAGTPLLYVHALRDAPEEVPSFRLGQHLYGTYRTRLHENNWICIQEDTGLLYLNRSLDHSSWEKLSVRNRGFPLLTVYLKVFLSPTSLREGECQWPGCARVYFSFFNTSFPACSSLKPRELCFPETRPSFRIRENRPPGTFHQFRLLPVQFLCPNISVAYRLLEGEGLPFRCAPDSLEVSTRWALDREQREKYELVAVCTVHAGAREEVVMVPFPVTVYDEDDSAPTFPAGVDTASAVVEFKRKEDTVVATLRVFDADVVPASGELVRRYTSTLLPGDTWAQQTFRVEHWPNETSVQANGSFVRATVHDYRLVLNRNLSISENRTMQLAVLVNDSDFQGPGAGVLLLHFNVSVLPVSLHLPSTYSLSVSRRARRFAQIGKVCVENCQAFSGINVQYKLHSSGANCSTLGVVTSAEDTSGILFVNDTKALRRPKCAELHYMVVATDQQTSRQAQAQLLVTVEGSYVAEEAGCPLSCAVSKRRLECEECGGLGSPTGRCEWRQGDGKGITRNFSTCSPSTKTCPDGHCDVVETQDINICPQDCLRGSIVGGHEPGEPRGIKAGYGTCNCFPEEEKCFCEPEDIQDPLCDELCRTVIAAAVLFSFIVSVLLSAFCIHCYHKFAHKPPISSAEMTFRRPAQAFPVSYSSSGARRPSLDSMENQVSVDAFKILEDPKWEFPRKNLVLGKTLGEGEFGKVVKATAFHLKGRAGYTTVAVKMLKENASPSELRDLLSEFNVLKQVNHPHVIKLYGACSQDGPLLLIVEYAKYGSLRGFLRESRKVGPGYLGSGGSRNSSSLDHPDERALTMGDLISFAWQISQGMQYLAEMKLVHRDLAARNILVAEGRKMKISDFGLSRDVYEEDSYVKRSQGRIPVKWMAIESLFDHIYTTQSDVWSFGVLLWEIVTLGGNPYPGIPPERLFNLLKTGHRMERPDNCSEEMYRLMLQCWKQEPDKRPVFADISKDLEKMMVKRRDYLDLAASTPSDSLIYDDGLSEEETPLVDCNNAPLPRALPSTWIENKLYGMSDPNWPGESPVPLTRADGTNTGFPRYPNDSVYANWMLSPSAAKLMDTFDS

Aurora kinase B [8] = target: T1, Aurora kinase B; assay: Inhibition of Aurora B kinase in human HeLa cells assessed as inhibition of Histone H3 phosphorylation after 48 hrs by immuno-fluorescence analysis relative to control; format: cell-based
HGC-27 = assay: Cytotoxicity against human HGC27 cells after 72 hrs by CCK-8 assay; format: functional, cell-based; conditions: HGC-27, 72 h
SW-620 [9] = assay: Induction of apoptosis in human SW620 cells assessed as late apoptotic cells at 20 uM after 48 hrs by Annexin-V staining-based flow cytometry (reference value: 4.52 %); format: functional
[10] = target: RAF proto-oncogene serine/threonine-protein kinase (Homo sapiens) (UniProt P04049); assay: Inhibition of c-Raf (unknown origin) at 10 uM by Z'-LYTE kinase assay
[11] = Cytotoxicity against human PANC cells after 72 hrs by CCK-8 assay; format: functional, cell-based
SW-620 [12] = assay: Growth inhibition in human SW620 cells at 5 to 10 uM after 96 hrs by CCK-8 assay relative to control; format: functional, cell-based
HeLa = assay: Cytotoxicity against human HeLa cells after 72 hrs by CCK-8 assay; format: functional, cell-based
SW-620 [13] = assay: Cytotoxicity against human SW620 cells at 10 uM incubated for 96 hrs measured after 10 days by colony formation assay relative to control; format: functional
Aurora kinase B [14] = target: T1, Aurora kinase B; assay: Inhibition of Aurora B kinase phosphorylation in human SW620 cells after 48 hrs by Western blotting analysis; format: cell-based; conditions: SW-620
Aurora kinase B [15] = target: T1, Aurora kinase B; assay: Inhibition of Aurora B kinase in human SW620 cells assessed as inhibition of Histone H3 phosphorylation after 48 hrs by Western blotting analysis; format: cell-based; conditions: SW-620
HepG2 = assay: Cytotoxicity against human HepG2 cells after 72 hrs by CCK-8 assay; format: functional, cell-based; conditions: HepG2, 72 h
MCF7 = assay: Cytotoxicity against human MCF7 cells after 72 hrs by CCK-8 assay; format: functional, cell-based; conditions: MCF7, 72 h
MDA-MB-231 = assay: Cytotoxicity against human MDA-MB-231 cells after 72 hrs by CCK-8 assay; format: functional, cell-based; conditions: MDA-MB-231, 72 h
Aurora kinase B [16] = target: T1, Aurora kinase B; assay: Inhibition of Aurora B kinase phosphorylation in human HeLa cells after 48 hrs by Western blotting analysis; format: cell-based
SK-OV-3 = assay: Cytotoxicity against human SKOV3 cells after 72 hrs by CCK-8 assay; format: functional, cell-based; conditions: SK-OV-3, 72 h
[17] = target: 5'-AMP-activated protein kinase catalytic subunit alpha-2 (Homo sapiens) (UniProt P54646); assay: Inhibition of AMPK (unknown origin) at 10 uM by Z'-LYTE kinase assay
SW-620 [18] = assay: Growth inhibition in human SW620 cells at 5 to 10 uM incubated for 96 hrs followed by compound washout measured after 48 hrs by CCK-8 assay; format: functional, cell-based
[19] = target: CDK2/Cyclin A2 (Homo sapiens) (UniProt P24941+P20248); assay: Inhibition of CDK2/CycA (unknown origin) at 10 uM by Z'-LYTE kinase assay; format: protein-complex assay
CNE = assay: Cytotoxicity against human CNE cells after 72 hrs by CCK-8 assay; format: functional, cell-based
[20] = target: Glycogen synthase kinase-3 beta (Homo sapiens) (UniProt P49841); assay: Inhibition of GSK3 beta (unknown origin) at 10 uM by Z'-LYTE kinase assay
SW-620 [21] = assay: Induction of apoptosis in human SW620 cells assessed as late apoptotic cells at 10 uM after 48 hrs by Annexin-V staining-based flow cytometry (reference value: 4.52 %); format: functional
[22] = target: Serine/threonine-protein kinase PLK1 (Homo sapiens) (UniProt P53350); assay: Inhibition of PLK1 (unknown origin) at 10 uM by Z'-LYTE kinase assay
Sequence of Serine/threonine-protein kinase PLK1 (Homo sapiens) (P53350 whole entry): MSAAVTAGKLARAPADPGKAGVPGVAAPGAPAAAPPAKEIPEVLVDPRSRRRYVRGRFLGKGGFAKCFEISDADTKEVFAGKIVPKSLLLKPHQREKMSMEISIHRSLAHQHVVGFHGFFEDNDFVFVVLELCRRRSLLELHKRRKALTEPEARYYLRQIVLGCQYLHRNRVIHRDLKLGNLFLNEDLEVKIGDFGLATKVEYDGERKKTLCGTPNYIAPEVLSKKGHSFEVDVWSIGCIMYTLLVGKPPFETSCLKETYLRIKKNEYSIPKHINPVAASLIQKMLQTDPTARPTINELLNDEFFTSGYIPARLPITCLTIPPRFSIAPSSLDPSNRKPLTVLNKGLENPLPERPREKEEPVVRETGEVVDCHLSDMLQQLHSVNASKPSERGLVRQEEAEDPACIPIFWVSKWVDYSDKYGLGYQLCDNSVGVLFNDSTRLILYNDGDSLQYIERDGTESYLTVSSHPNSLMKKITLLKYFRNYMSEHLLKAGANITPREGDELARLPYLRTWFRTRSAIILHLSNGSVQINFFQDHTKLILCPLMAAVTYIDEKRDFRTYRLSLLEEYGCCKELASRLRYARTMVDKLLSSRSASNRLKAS

[23] = target: Platelet-derived growth factor receptor beta (Homo sapiens) (UniProt P09619); assay: Inhibition of PDGFR beta (unknown origin) at 10 uM by Z'-LYTE kinase assay
Sequence of Platelet-derived growth factor receptor beta (Homo sapiens) (P09619 whole entry): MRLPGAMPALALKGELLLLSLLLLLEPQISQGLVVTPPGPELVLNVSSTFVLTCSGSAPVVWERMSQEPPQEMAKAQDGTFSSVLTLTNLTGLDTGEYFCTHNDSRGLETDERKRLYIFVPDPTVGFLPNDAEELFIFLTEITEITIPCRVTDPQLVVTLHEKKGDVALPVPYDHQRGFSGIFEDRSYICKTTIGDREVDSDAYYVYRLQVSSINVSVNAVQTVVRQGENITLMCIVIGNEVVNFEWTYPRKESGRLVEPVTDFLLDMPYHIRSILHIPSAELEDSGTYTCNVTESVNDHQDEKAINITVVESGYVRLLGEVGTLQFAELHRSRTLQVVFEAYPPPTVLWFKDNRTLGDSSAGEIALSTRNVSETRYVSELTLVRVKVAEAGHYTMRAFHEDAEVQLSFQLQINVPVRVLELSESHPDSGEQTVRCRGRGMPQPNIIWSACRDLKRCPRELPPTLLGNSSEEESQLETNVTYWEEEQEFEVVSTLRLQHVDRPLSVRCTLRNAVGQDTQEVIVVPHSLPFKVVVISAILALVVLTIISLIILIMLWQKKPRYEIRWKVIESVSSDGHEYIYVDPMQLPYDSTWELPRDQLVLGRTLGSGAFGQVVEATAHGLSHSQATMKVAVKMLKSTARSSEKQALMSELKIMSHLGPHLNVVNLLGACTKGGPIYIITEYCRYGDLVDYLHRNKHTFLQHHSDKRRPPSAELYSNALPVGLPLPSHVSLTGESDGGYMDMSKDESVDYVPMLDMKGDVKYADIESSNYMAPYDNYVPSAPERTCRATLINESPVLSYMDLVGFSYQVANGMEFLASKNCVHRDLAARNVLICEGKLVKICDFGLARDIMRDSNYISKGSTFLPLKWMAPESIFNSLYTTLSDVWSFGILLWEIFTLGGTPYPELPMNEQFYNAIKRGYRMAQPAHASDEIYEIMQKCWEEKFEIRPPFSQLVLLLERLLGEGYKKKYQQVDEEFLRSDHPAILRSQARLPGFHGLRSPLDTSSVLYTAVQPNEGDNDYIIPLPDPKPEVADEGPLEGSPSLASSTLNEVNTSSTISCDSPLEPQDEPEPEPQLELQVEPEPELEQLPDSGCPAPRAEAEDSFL

Aurora kinase B [24] = target: T1, Aurora kinase B; assay: Inhibition of Aurora B kinase phosphorylation in human HepG2 cells after 48 hrs by Western blotting analysis; format: cell-based
HCT-116 = assay: Cytotoxicity against human HCT116 cells after 72 hrs by CCK-8 assay; format: functional, cell-based; conditions: HCT-116, 72 h
SW-620 [25] = assay: Induction of apoptosis in human SW620 cells assessed as late apoptotic cells at 5 uM after 48 hrs by Annexin-V staining-based flow cytometry (reference value: 4.52 %); format: functional
[26] = target: RAC-alpha serine/threonine-protein kinase (Homo sapiens) (UniProt P31749); assay: Inhibition of AKT1 (unknown origin) at 10 uM by Z'-LYTE kinase assay
Sequence of RAC-alpha serine/threonine-protein kinase (Homo sapiens) (P31749 whole entry): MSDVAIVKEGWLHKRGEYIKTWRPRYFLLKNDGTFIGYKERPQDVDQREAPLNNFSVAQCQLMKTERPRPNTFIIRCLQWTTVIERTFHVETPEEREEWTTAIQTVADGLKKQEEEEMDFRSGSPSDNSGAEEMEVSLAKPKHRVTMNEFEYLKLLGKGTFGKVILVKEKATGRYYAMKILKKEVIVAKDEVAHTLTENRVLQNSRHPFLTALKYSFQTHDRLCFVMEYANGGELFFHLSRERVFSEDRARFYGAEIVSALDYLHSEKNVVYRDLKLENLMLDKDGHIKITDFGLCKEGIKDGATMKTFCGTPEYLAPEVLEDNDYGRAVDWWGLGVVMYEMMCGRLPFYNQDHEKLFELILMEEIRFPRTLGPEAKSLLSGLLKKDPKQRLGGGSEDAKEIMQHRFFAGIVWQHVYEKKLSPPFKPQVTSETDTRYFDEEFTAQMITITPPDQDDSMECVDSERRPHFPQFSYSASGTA

SW-620 [27] = assay: Cytotoxicity against human SW620 cells at 20 uM incubated for 96 hrs measured after 10 days by colony formation assay relative to control; format: functional
[28] = target: Vascular endothelial growth factor receptor 2 (Homo sapiens) (UniProt P35968); assay: Inhibition of VEGFR2 (unknown origin) at 10 uM by Z'-LYTE kinase assay
Aurora kinase B [29] = target: T1, Aurora kinase B; assay: Inhibition of Aurora B kinase in human HeLa cells assessed as inhibition of Histone H3 phosphorylation after 48 hrs by Western blotting analysis; format: cell-based
SW-620 [30] = assay: Growth inhibition in human SW620 cells assessed as cell death at 10 uM incubated for 96 hrs measured after 8 days by CCK-8 assay; format: functional, cell-based
PC-3 = assay: Cytotoxicity against human PC3 cells after 72 hrs by CCK-8 assay; format: functional, cell-based; conditions: PC-3, 72 h
A-375 = assay: Cytotoxicity against human A375 cells after 72 hrs by CCK-8 assay; format: functional, cell-based; conditions: A-375, 72 h
A549 = assay: Cytotoxicity against human A549 cells after 72 hrs by CCK-8 assay; format: functional, cell-based; conditions: A549, 72 h
[31] = target: High affinity nerve growth factor receptor (Homo sapiens) (UniProt P04629); assay: Inhibition of TRKA (unknown origin) at 10 uM by Z'-LYTE kinase assay
Sequence of High affinity nerve growth factor receptor (Homo sapiens) (P04629 33-796 limits assumed): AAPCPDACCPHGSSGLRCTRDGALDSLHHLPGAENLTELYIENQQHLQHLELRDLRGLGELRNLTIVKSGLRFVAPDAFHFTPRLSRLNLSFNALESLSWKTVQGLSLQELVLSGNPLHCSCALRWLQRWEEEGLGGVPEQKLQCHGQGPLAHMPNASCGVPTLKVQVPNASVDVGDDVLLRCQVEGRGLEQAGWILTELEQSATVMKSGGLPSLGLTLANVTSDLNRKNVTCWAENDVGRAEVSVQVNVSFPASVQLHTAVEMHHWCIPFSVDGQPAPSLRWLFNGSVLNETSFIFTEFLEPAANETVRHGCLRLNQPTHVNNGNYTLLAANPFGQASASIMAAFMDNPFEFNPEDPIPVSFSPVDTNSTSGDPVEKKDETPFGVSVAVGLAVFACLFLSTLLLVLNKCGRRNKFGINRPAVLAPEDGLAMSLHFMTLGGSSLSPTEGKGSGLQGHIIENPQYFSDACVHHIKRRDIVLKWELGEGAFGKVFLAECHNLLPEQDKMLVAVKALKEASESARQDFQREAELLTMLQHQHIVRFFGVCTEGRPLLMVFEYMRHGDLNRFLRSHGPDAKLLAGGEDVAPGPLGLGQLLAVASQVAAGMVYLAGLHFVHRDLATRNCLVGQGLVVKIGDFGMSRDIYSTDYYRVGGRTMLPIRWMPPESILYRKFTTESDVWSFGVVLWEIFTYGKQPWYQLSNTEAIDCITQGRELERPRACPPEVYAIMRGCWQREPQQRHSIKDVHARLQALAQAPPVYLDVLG

SW-620 [32] = assay: Cytotoxicity against human SW620 cells after 72 hrs by CCK-8 assay; format: functional, cell-based; conditions: SW-620, 72 h
Aurora kinase B [33] = target: T1, Aurora kinase B; assay: Inhibition of Aurora B kinase in human HepG2 cells assessed as inhibition of Histone H3 phosphorylation after 48 hrs by Western blotting analysis; format: cell-based
SW-620 [34] = assay: Induction of apoptosis in human SW620 cells assessed as late apoptotic cells after 48 hrs by Annexin-V staining-based flow cytometry; format: functional, cell-based
Aurora kinase B [35] = target: T1, Aurora kinase B; assay: Inhibition of recombinant Aurora B kinase (unknown origin) expressed in Escherichia coli

SMILES: c1ccc(-c2csc3ncnc(N4CCc5ccccc5C4)c23)cc1
- IC50 (SK-HEP1): > 100 µM
- inhibition (Homo sapiens): 1.77%
- inhibition [1]: 65.3%
- inhibition (Aurora kinase B [2]): Active
- inhibition [3]: 2.58%
- inhibition [4]: 1.69%
- IC50 [5]: > 100 µM
- inhibition (Aurora kinase B [6]): 74.4%
- inhibition [7]: 1.86%
- inhibition (Aurora kinase B [8]): Active
- IC50 (HGC-27): 17.4 µM
- Activity (SW-620 [9]): 35.39%
- inhibition [10]: 1.42%
- IC50 [11]: 42.3 µM
- growth inhibition (GI) (SW-620 [12]): Active
- IC50 (HeLa): 20.8 µM
- Activity (SW-620 [13]): 33.6%
- inhibition (Aurora kinase B [14]): Dose-dependent effect
- inhibition (Aurora kinase B [15]): Active
- IC50 (HepG2): 23.4 µM
- IC50 (MCF7): 27 µM
- IC50 (MDA-MB-231): > 100 µM
- inhibition (Aurora kinase B [16]): Dose-dependent effect
- IC50 (SK-OV-3): 20.6 µM
- inhibition [17]: 3.37%
- growth inhibition (GI) (SW-620 [18]): inactive
- inhibition [19]: 27.7%
- IC50 (CNE): > 100 µM
- inhibition [20]: 13%
- Activity (SW-620 [21]): 24.09%
- inhibition [22]: 6.5%
- inhibition [23]: 9.63%
- inhibition (Aurora kinase B [24]): Dose-dependent effect
- IC50 (HCT-116): > 100 µM
- Activity (SW-620 [25]): 9.34%
- inhibition [26]: 5.32%
- Activity (SW-620 [27]): 13.2%
- inhibition [28]: 3.02%
- inhibition (Aurora kinase B [29]): Active
- growth inhibition (GI) (SW-620 [30]): Active
- IC50 (PC-3): 13.2 µM
- IC50 (A-375): 15.2 µM
- IC50 (A549): > 100 µM
- inhibition [31]: 4.18%
- IC50 (SW-620 [32]): 6.25 µM
- inhibition (Aurora kinase B [33]): Active
- Activity (SW-620 [34]): Dose-dependent effect
- IC50 (Aurora kinase B [35]): 0.141 µM
